Values of other authors in patent US20240024253A1, “Continuous Drug Delivery Systems and Methods” (Pike Therapeutics Inc., priority 2022, published 2024).

Legend:
[1] = biological target: CB2 cannabinoid receptor (Homo sapiens, UniProt P34972); conditions: CB2 versus CB1
[2] = biological target: CB1 cannabinoid receptor; conditions: parameter not named at the place

Chain of CB2 cannabinoid receptor (P34972 whole entry): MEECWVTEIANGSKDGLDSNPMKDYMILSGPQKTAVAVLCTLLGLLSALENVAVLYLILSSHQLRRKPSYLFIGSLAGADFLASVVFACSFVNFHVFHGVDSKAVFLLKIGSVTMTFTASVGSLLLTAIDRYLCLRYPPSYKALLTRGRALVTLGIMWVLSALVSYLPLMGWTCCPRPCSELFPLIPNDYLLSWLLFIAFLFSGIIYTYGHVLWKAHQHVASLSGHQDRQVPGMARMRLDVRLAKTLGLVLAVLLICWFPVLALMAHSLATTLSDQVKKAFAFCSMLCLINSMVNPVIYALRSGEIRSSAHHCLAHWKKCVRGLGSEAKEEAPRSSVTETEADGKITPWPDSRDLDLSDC

In the case of `CCCCCCC(C)(C)c1cc(O)c2c(c1)oc(=O)c1ccc(OC)cc12` [AM-1710], the “selectivity / binding strength CB2 over CB1” value [1] is listed as 54 ×.
In the case of `CCCn1cc(C(=O)c2ccc(C)c3ccccc23)c2ccccc21` [JWH-120], the “selectivity for CB2 receptor” value [1] is given as 173 fold.
In the case of `CCCn1c(C)c(C(=O)c2ccc(C)c3ccccc23)c2ccccc21` [JWH-148], the “selectivity for CB2 over the CB1 subtype” value [1] is listed as “more than 8 times”.
In the case of `CCCCCn1cc(Cc2cccc3ccccc23)c2ccccc21` [JWH-175, (1-pentylindol-3-yl)naphthalen-1-ylmethane], the Ki [2] is given as 22 nM.
For `CCCCCCC(C)(C)c1cc(OC)c2c(c1)OC(C)(C)C1CCC(O)CC21` (stereo not drawn) [JWH-350, 11-nor-1-methoxy-3-(1′,1′-dimethylheptyl)-9α-hydroxyhexahydrocannabinol], the “selectivity for CB2 receptor” value [1] is listed as 33 fold.
